Results: patent publication US11051515B2, “3-acyl-benzamides and their use as herbicides” (Bayer Aktiengesellschaft, priority 2017, dated 2021)

What was measured:
ALOMY [1] = test: Pre-emergence action against ALOMY; format: in vivo, Alopecurus myosuroides; details: dosage 320 g/ha; pre-emergence; scored visually after 3 weeks vs untreated controls; 100% = plants have died, 0% = like control plants
Method in brief: (§1)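 Seeds sown in sandy loam in wood-fiber pots and covered with soil. Greenhouse growth; visual damage scored after 3 weeks versus untreated controls (100% = dead, 0% = like control).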

AVEFA [2] = test: Pre-emergence action against AVEFA; format: in vivo, Avena fatua; details: dosage 320 g/ha, scored visually after 3 weeks vs untreated controls
Method in brief: as §1

CYPES [3] = test: Pre-emergence action against CYPES; format: in vivo, Cyperus esculentus; details: pre-emergence, dosage 320 g/ha, scored visually after 3 weeks vs untreated controls
Method in brief: as §1

ECHCG [4] = test: Pre-emergence action against ECHCG; format: in vivo, Echinochloa crus-galli; details: pre-emergence, dosage 320 g/ha, scored visually after 3 weeks vs untreated controls
Method in brief: as §1

SETVI [5] = test: Pre-emergence action against SETVI; format: in vivo, Setaria viridis; details: pre-emergence, dosage 320 g/ha, scored visually after 3 weeks vs untreated controls
Method in brief: as §1

ABUTH [6] = test: Pre-emergence action against ABUTH; format: in vivo, Abutilon theophrasti; details: for Pre-emergence action against ABUTH (herbicidal activity): dosage 320 g/ha, scored visually after 3 weeks vs untreated controls
Method in brief: as §1

AMARE [7] = test: Pre-emergence action against AMARE; format: in vivo, Amaranthus retroflexus; details: for Pre-emergence action against AMARE (herbicidal activity): dosage 320 g/ha, scored visually after 3 weeks vs untreated controls
Method in brief: as §1

MATIN [8] = test: Pre-emergence action against MATIN; format: in vivo, Matricaria inodora; details: for Pre-emergence action against MATIN: Dosage 320 g/ha
Method in brief: as §1

STEME [9] = test: Pre-emergence action against STEME; format: in vivo, Stellaria media; details: Dosage 320 g/ha, pre-emergence
Method in brief: as §1

VIOTR [10] = test: Pre-emergence action against VIOTR; format: in vivo, Viola tricolor; details: for Pre-emergence action against VIOTR: Dosage 320 g/ha; for Herbicidal efficacy against VIOTR: 20 g of a.i./ha
Method in brief: as §1

VERPE [11] = test: Pre-emergence action against VERPE; format: in vivo, Veronica persica; details: Dosage 320 g/ha, pre-emergence
Method in brief: as §1

ALOMY [12] = test: Post-emergence action against ALOMY; format: in vivo, Alopecurus myosuroides; details: for Post-emergence action against ALOMY: Dosage 80 g/ha
Method: Seeds of monocotyledonous and dicotyledonous weed and crop plants are laid out in sandy loam soil in wood-fiber pots, covered with soil and cultivated in a greenhouse under good growth conditions. 2 to 3 weeks after sowing, the test plants are treated at the one-leaf stage. The compounds of the invention, formulated in the form of wettable powders (WP) or as emulsion concentrates (EC), are then sprayed onto the green parts of the plants in the form of an aqueous suspension or emulsion at a water application rate equating to […], with addition of 0.2% wetting agent. After the test plants have been left to stand in the greenhouse under optimal growth conditions for about 3 weeks, the action of the preparations is assessed visually in comparison to untreated controls (herbicidal action in percent (%): 100% activity=the plants have died, 0% activity=like control plants). […] At the same time, inventive compounds leave Gramineae crops such as barley, wheat, rye, millet/Sorghum, corn or rice virtually undamaged when applied post-emergence, even at high active ingredient dosages. In addition, some substances are also harmless to dicotyledonous crops such as soya, cotton, oilseed rape, sugar beet or potatoes. Some of the compounds according to the invention have high selectivity and are therefore suitable for controlling unwanted vegetation in agricultural crops by the post-emergence method. The data of Tables B18 to B34 below illustrate, in an exemplary manner, the […] herbicidal action of the compounds according to the invention, the herbicidal activity being stated in percent.

AVEFA [13] = test: Post-emergence action against AVEFA; format: in vivo, Avena fatua; details: post-emergence, dosage 80 g/ha, visual assessment about 3 weeks after treatment vs untreated controls
Method in brief: (§2)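 Post-emergence foliar spray on greenhouse plants at the one-leaf stage, using wettable-powder or emulsion-concentrate formulations in water (600 to […], plus 0.2% wetting agent). Damage scored by eye roughly 3 weeks later against untreated plants: 0% = like control, 100% = dead.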

CYPES [14] = test: Post-emergence action against CYPES; format: in vivo, Cyperus esculentus; details: for Post-emergence action against CYPES (herbicidal action in percent): dosage 80 g/ha, visual assessment about 3 weeks after treatment vs untreated controls
Method in brief: as §2

ECHCG [15] = test: Post-emergence action against ECHCG; format: in vivo, Echinochloa crus-galli; details: post-emergence, dosage 80 g/ha, visual assessment about 3 weeks after treatment vs untreated controls
Method in brief: as §2

SETVI [16] = test: Post-emergence action against SETVI; format: in vivo, Setaria viridis; details: post-emergence, dosage 80 g/ha, visual assessment about 3 weeks after treatment vs untreated controls
Method in brief: as §2

ABUTH [17] = test: Post-emergence action against ABUTH; format: in vivo, Abutilon theophrasti; details: for Post-emergence action against ABUTH (herbicidal action in percent): dosage 80 g/ha, visual assessment about 3 weeks after treatment vs untreated controls
Method in brief: as §2

MATIN [18] = test: Post-emergence action against MATIN; format: in vivo, Matricaria inodora; details: for Post-emergence action against MATIN (herbicidal action in percent): dosage 80 g/ha, visual assessment about 3 weeks after treatment vs untreated controls
Method in brief: as §2

PHBPU [19] = test: Post-emergence action against PHBPU; format: in vivo, Pharbitis purpurea; details: post-emergence, dosage 80 g/ha
Method in brief: as §2

POLCO [20] = test: Post-emergence action against POLCO; format: in vivo, Polygonum convolvulus; details: for Post-emergence action against POLCO: dosage 80 g/ha
Method in brief: as §2

STEME [21] = test: Post-emergence action against STEME; format: in vivo, Stellaria media; details: post-emergence, dosage 80 g/ha
Method in brief: as §2

VIOTR [22] = test: Post-emergence action against VIOTR; format: in vivo, Viola tricolor; details: for Post-emergence action against VIOTR: dosage 80 g/ha
Method in brief: as §2

VERPE [23] = test: Post-emergence action against VERPE; format: in vivo, Veronica persica; details: dosage 80 g/ha
Method in brief: as §2

PHBPU [24] = test: Pre-emergence action against PHBPU; format: in vivo, Pharbitis purpurea; details: Dosage 320 g/ha, pre-emergence
Method in brief: as §1

POLCO [25] = test: Pre-emergence action against POLCO; format: in vivo, Polygonum convolvulus; details: Dosage 320 g/ha, pre-emergence
Method in brief: as §1

AMARE [26] = test: Post-emergence action against AMARE; format: in vivo, Amaranthus retroflexus; details: post-emergence, dosage 80 g/ha, visual assessment about 3 weeks after treatment vs untreated controls
Method in brief: as §2

[27] = Table V7, pre-emergence, 20 g of a.i./ha
[28] = Table V20, post-emergence, 80 g of a.i./ha
[29] = Table V17, post-emergence, 5 g of a.i./ha

Row | SMILES | Pre-emergence action against ALOMY (herbicidal activity in percent) (ALOMY [1]) | Pre-emergence action against AVEFA (herbicidal activity) (AVEFA [2]) | Pre-emergence action against CYPES (herbicidal activity) (CYPES [3]) | Pre-emergence action against ECHCG (herbicidal activity) (ECHCG [4]) | SETVI (Table B8, pre-emergence herbicidal activity) (SETVI [5]) | Pre-emergence action against ABUTH (herbicidal activity) (ABUTH [6]) | Pre-emergence action against AMARE (herbicidal activity) (AMARE [7]) | Pre-emergence action against MATIN (MATIN [8]) | Pre-emergence action against VIOTR (VIOTR [10]) | Pre-emergence action against VERPE (VERPE [11]) | Post-emergence action against ALOMY (ALOMY [12]) | Post-emergence action against AVEFA (herbicidal action in percent) (AVEFA [13]) | Post-emergence action against CYPES (herbicidal action in percent) (CYPES [14]) | Post-emergence action against ECHCG (herbicidal action in percent) (ECHCG [15]) | Post-emergence action against SETVI (herbicidal action in percent) (SETVI [16]) | Post-emergence action against ABUTH (herbicidal action in percent) (ABUTH [17]) | Post-emergence action against MATIN (herbicidal action in percent) (MATIN [18]) | Post-emergence action against PHBPU (PHBPU [19]) | Post-emergence action against POLCO (POLCO [20]) | Post-emergence action against STEME (STEME [21]) | other results
1 | CCCn1nnnc1NC(=O)c1ccc(C(F)(F)F)c(C(=O)C2CC2)c1C [3-18] | 80% | 80% | 90% | 100% | 100% | 100% | 100% | 100% | 100% | 90% | 80% | 80% | 90% | 80% | 100% | 80% | 90% | 90 | 80 | 100 | Pre-emergence action against STEME (STEME [9]): 100%; Post-emergence action against VIOTR (VIOTR [22]): 100; Post-emergence action against VERPE (VERPE [23]): 80
2 | CCn1nnnc1NC(=O)c1ccc(S(C)(=O)=O)c(C(=O)C2CC2)c1C [2-9] | 90% | 100% | 90% | 100% | 100% | 100% | 100% | 100% | 100% | 100% | 90% | 100% | 90% | 90% | 90% | 90% | 100% | 100 | 100 | 100 | Herbicidal efficacy against ABUTH (ABUTH [6]; [27]): 100; Herbicidal efficacy against AMARE (AMARE [7]; Table V13, pre-emergence, 20 g of a.i./ha): 100; Herbicidal efficacy against MATIN (MATIN [8]; [27]): 80; Pre-emergence action against PHBPU (PHBPU [24]): 90%; Pre-emergence action against POLCO (POLCO [25]): 80%; Herbicidal efficacy against VIOTR (VIOTR [10]; Table V7, pre-emergence): 90; Herbicidal efficacy against VIOTR (VIOTR [10]; Table V13, pre-emergence): 90; Herbicidal efficacy against ALOMY (ALOMY [12]; [28]): 90; Herbicidal efficacy against CYPES (CYPES [14]; [28]): 90; Herbicidal efficacy against ABUTH (ABUTH [17]; [28]): 90; Post-emergence action against AMARE (herbicidal action in percent) (AMARE [26]): 100%; Herbicidal efficacy against MATIN (MATIN [18]; [29]): 90; Herbicidal efficacy against POLCO (POLCO [20]; [28]): 100; Herbicidal efficacy against VIOTR (VIOTR [22]; [29]): 100; Post-emergence action against VIOTR (VIOTR [22]): 100; Post-emergence action against VERPE (VERPE [23]): 100
